# Test results as given in EP1881000A1, “Conjugates of 2-fluoro-2-deoxy-glucose and their uses as anti cancer agents” (INSTITUT NATIONAL DE LA SANTE ET DE LA RECHERCHE MEDICALE …, priority 2006, dated 2008).
# Experiments:
# [1] = Determination of the Maximum Tolerated Dose (MTD), acute toxicity after a single IP injection; assay type: in vivo, male OF1 mice; set-up: key to Clinical State Score (CSS) diarrhoea / Clinical State Score (CSS) rough coat / Clinical State Score (CSS) closed eyes / Clinical State Score (CSS) lethargy / Clinical State Score (CSS) total: per mouse 0 = absent, 1 = present per sign; summed over group; settings: for dosage inducing high side effects (mainly diarrhoea): as early as Day 1 after IP administration; for MTD at 2 weeks: male, OF1, mouse, in vivo, zero deaths, maximal weight loss 15 % at Day 1, CSS as low as possible; for MTD at 2 weeks / doses inducing 100% mortality: single IP administration; for Clinical State Score (CSS) closed eyes / Clinical State Score (CSS) diarrhoea / Clinical State Score (CSS) lethargy / Clinical State Score (CSS) rough coat / Clinical State Score (CSS) total: group sum; for Number of deaths (day): non-tumour bearing mice
# Protocol: Drugs were dissolved in a mixture of dimethylacetamide (Sigma) and oleic macrogolglycerides (Labrafil® M1944Cs, Gattefossé) (10:90%, vol/vol).
# Initially, the Maximum Tolerated Dose (MTD) after intraperitoneal (IP) administration was determinated.
# For MTD determination, study was conducted on male OF1 mice weighing about 30 g, 6-weeks old (Charles River, France). Groups of five to six mice received a single IP injection of each drug at variable doses according to the compound (see Tables 2, 3 and 4).
# Individual dose were based on the body weight of each mouse. All the mice received a constant injection volume of 250 µL per 25 g of body weight. A group of seven control mice received the vehicle.
# After IP injection, mice were weighed and observed every two days over a 2 week-period to evaluate general clinical state. For each animal, a clinical state score (CSS) was calculated based on the absence (value 0) or presence (value 1) of diarrhoea, lethargy, rough coat and closed eyes. CSS was then calculated per group by summing individual scores. Loss of weight and mortality were also recorded.
# [2] = test system: lung non-small cell carcinoma A 549; test: In vitro cytotoxicity assay (resazurin reduction test); assay type: cell-based; settings: Homo sapiens; A549; 48-h continuous drug exposure
# From the text: (§1) Normal human fibroblasts were purchased from Promocell (Heidelberg, Germany). This frozen culture was obtained from foreskin waste and the cells used in this work were from the seventh to twelfth passage of the culture. M4Beu, a human melanoma cell line, was established in the laboratory of Dr. J. F. Doré (INSERM, Unit 218, Lyon, France) from metastatic biopsy specimens and maintained in cell culture for almost 20 years in our lab. Breast cancer adenocarcinoma MCF 7, prostatic adenocarcinoma PC 3, colon adenocarcinoma DLD-1, lung non-small cell carcinoma A 549, ovary adenocarcinoma PA1 human cell lines and L 929 murine cell line were purchased from the European Collection of Cell Cultures (ECACC; Salisbury, United Kingdom). Murine Melanoma B16 was purchased from American Type of Culture Collection (ATCC, Manassas, USA) and murine colon carcinoma cell line CT-26 was obtained from Dr I. J. Fidler (University of Texas M.D. Anderson Cancer Center, Houston).
# (§2) Stock cell cultures were maintained as monolayers in 75cm^2 culture flasks in Glutamax Eagle's minimum essential medium with Earle's salts (MEM; Gibco BRL, Paisley, UK) supplemented with 10% fetal calf serum (Sigma, St Quentin Fallavier, France), 1 mM sodium pyruvate (Gibco), 1X vitamins solution (Gibco), 1X non essential amino acids solution (Gibco) and 4 µg/ml of gentamicine (Gibco). Cells were grown at 37°C in a humidified atmosphere containing 5% CO2.
# (§3) Cells were plated at a density of 5 x 10^3 cells per well in 96-well microplates (Nunclon™, Nunc, Roskilde, Denmark) in 150 µl of culture medium and were allowed to adhere for 16 h before treatment with the compound tested.
# (§4) Stock solution of each compound was prepared in dimethylsulfoxide (DMSO) and kept at -20°C. until use. The percentage of DMSO was kept at 0.5% (v/v) whichever the concentration tested. […] Fifty microliters of a 4X solution in MEM was then added and a 48-h continuous drug exposure protocol was used. Then, the cytotoxic effect of compounds on tumour cells was tested by using Resazurin reduction test.
# (§5) Resazurin was identified as the Alamar blue dye (O'Brien, J. et al.; European Journal of Biochemistry, 267, 5421-6, (2000)). The resazurin reduction test (RRT) was carried out according to the protocol described here. Briefly, plates were rinsed by 200 µl PBS (37° C, Gibco) using a multichannel dispenser (Labsystems, Helsinki, Finland) and emptied by overturning on absorbent toweling. Then, 150 µl of a 25 µg/ml solution of resazurin in MEM without SVF nor Phenol red was added in each well. The plates were incubated 1 h at 37° C. in an humidified atmosphere with 5% of CO2 for fluorescence development by living cells. Fluorescence was then measured on the automated 96-well plate reader Fluoroskan Ascent FL™ (Labsystems) using an excitation wavelength of 530 nm and an emission one of 590 nm.
# (§6) Cytotoxic activity has been tested against the six human tumour cell lines breast adenocarcinoma MCF-7, colon adenocarcinoma DLD-1, ovary adenocarcinoma PA1, prostatic adenocarcinoma PC3, lung carcinoma A549, melanoma M4Beu and a primary culture of human fibroblasts.
# [3] = test system: colon adenocarcinoma DLD-1; test: as above; assay type: cell-based; settings: Homo sapiens, DLD1, 48-h continuous drug exposure
# From the text: as §1, §2, §3, §4, §5, §6
# ovary adenocarcinoma PA1 = test: as above; assay type: cell-based; settings: Homo sapiens, 48-h continuous drug exposure
# From the text: as §1, §2, §3, §4, §5, §6
# [4] = test system: M4Beu, a human melanoma cell line; test: as above; assay type: cell-based; settings: 48-h continuous drug exposure
# From the text: as §1, §2, §3, §4, §5, §6
# [5] = test system: Breast cancer adenocarcinoma MCF 7; test: as above; assay type: cell-based; settings: Homo sapiens; MCF7; 48-h continuous drug exposure
# From the text: as §1, §2, §3, §4, §5, §6
# [6] = test system: prostatic adenocarcinoma PC 3; test: as above; assay type: cell-based; settings: Homo sapiens; PC3; 48-h continuous drug exposure
# From the text: as §1, §2, §3, §4, §5, §6
# tumour cells = test: In vitro cytotoxicity assay, statements over all cell lines of Table 1; assay type: cell-based; settings: Homo sapiens, PA-1
# From the text: as §1, with “Houston). […]” for “Houston).”
# Resazurin was identified as the Alamar blue dye (O'Brien, J. et al.; European Journal of Biochemistry, 267, 5421-6, (2000)). […] The plates were incubated 1 h at 37° C. in an humidified atmosphere with 5% of CO2 for fluorescence development by living cells. Fluorescence was then measured on the automated 96-well plate reader Fluoroskan Ascent FL™ (Labsystems) using an excitation wavelength of 530 nm and an emission one of 590 nm. […]
Compound,dosage inducing high side effects (mainly diarrhoea) [1] [mmol/kg],MTD at 2 weeks [1] [µmol/kg],Weight loss at day 1 ([1]; single IP 0.07 mmol/kg) [%],Clinical State Score (CSS) closed eyes ([1]; single IP 0.07 mmol/kg),Clinical State Score (CSS) diarrhoea ([1]; single IP 0.07 mmol/kg),Clinical State Score (CSS) lethargy ([1]; single IP 0.07 mmol/kg),Clinical State Score (CSS) rough coat ([1]; single IP 0.07 mmol/kg),Clinical State Score (CSS) total ([1]; single IP 0.07 mmol/kg),Number of deaths (day) ([1]; single IP 0.07 mmol/kg),Weight loss at day 1 ([1]; single IP 0.14 mmol/kg) [%],Clinical State Score (CSS) closed eyes ([1]; single IP 0.14 mmol/kg),Clinical State Score (CSS) diarrhoea ([1]; single IP 0.14 mmol/kg),Clinical State Score (CSS) lethargy ([1]; single IP 0.14 mmol/kg),Clinical State Score (CSS) rough coat ([1]; single IP 0.14 mmol/kg),Number of deaths (day) ([1]; single IP 0.14 mmol/kg),doses inducing 100% mortality [1] [mmol/kg],IC50 [2] [µM],IC50 [3] [µM],IC50 (ovary adenocarcinoma PA1) [µM],IC50 [4] [µM],other results
"CC(=O)OC[C@H]1O[C@@H](NC(=O)CNC(=O)CCCc2ccc(N(CCCl)CCCl)cc2)[C@H](F)[C@@H](OC(C)=O)[C@@H]1OC(C)=O [Compound 21a, N-[2-(3,4,6-tri-O-acetyl-2-deoxy-2-fluoro-β-D-glucopyranosylamino)-2-oxoethyl]-4-{4-[bis(2-chloroethyl)amino]phenyl}butanamide]",≥ 0.14,140,5.6,0,1,0,0,1,0,8.4,0,4,0,0,0,0.76,5 ± 2,4 ± 3,1 ± 0.1,6.8 ± 0.9,Clinical State Score (CSS) total ([1]; single IP 0.14 mmol/kg): 4; Weight loss at day 1 ([1]; single IP 0.18 mmol/kg): 10.4%; Clinical State Score (CSS) closed eyes ([1]; single IP 0.18 mmol/kg): 0; Clinical State Score (CSS) diarrhoea ([1]; single IP 0.18 mmol/kg): 4; Clinical State Score (CSS) lethargy ([1]; single IP 0.18 mmol/kg): 0; Clinical State Score (CSS) rough coat ([1]; single IP 0.18 mmol/kg): 4; Clinical State Score (CSS) total ([1]; single IP 0.18 mmol/kg): 8; Number of deaths (day) ([1]; single IP 0.18 mmol/kg): 1; Weight loss at day 1 ([1]; single IP 0.21 mmol/kg): 9.7%; Clinical State Score (CSS) closed eyes ([1]; single IP 0.21 mmol/kg): 0; Clinical State Score (CSS) diarrhoea ([1]; single IP 0.21 mmol/kg): 1; Clinical State Score (CSS) lethargy ([1]; single IP 0.21 mmol/kg): 2; Clinical State Score (CSS) rough coat ([1]; single IP 0.21 mmol/kg): 4; Clinical State Score (CSS) total ([1]; single IP 0.21 mmol/kg): 7; Number of deaths (day) ([1]; single IP 0.21 mmol/kg): 1 (D1); Number of deaths (day) ([1]; single IP 0.28 mmol/kg): 4 (D1); Number of deaths (day) ([1]; single IP 0.56 mmol/kg): 4 (D1); Number of deaths (day) ([1]; single IP 0.76 mmol/kg): 5 (D1); IC50 [5]: 8 ± 2 µM; IC50 [6]: 10 ± 2 µM
"CC(=O)OC[C@H]1O[C@@H](Oc2ccc(NC(=O)CNC(=O)CCCc3ccc(N(CCCl)CCCl)cc3)cc2)[C@H](F)[C@@H](OC(C)=O)[C@@H]1OC(C)=O [Compound 40a, N-{2-[4-(3,4,6-tri-O-acetyl-2-deoxy-2-fluoro-β-D-glucopyranosyloxy)phenyl]amino-2-oxoethyl}-4-{4-[bis(2-chloroethyl)amino]phenyl}butanamide]",≥ 0.07,140,6.3,0,2,0,0,2,0,14.9,0,2,0,0,0,0.56,10 ± 5,6 ± 2,1.5 ± 0.5,15 ± 6,"Clinical State Score (CSS) total ([1]; single IP 0.14 mmol/kg): 2; Weight loss at day 1 ([1]; single IP 0.18 mmol/kg): 8.2%; Clinical State Score (CSS) closed eyes ([1]; single IP 0.18 mmol/kg): 0; Clinical State Score (CSS) diarrhoea ([1]; single IP 0.18 mmol/kg): 3; Clinical State Score (CSS) lethargy ([1]; single IP 0.18 mmol/kg): 0; Clinical State Score (CSS) rough coat ([1]; single IP 0.18 mmol/kg): 3; Clinical State Score (CSS) total ([1]; single IP 0.18 mmol/kg): 6; Number of deaths (day) ([1]; single IP 0.18 mmol/kg): 2; Number of deaths (day) ([1]; single IP 0.21 mmol/kg): 3 (D6); Weight loss at day 1 ([1]; single IP 0.28 mmol/kg): 18.3%; Clinical State Score (CSS) closed eyes ([1]; single IP 0.28 mmol/kg): 2; Clinical State Score (CSS) diarrhoea ([1]; single IP 0.28 mmol/kg): 4; Clinical State Score (CSS) lethargy ([1]; single IP 0.28 mmol/kg): 2; Clinical State Score (CSS) rough coat ([1]; single IP 0.28 mmol/kg): 0; Clinical State Score (CSS) total ([1]; single IP 0.28 mmol/kg): 8; Number of deaths (day) ([1]; single IP 0.28 mmol/kg): 2 (D1); Number of deaths (day) ([1]; single IP 0.42 mmol/kg): 3(D6); Number of deaths (day) ([1]; single IP 0.56 mmol/kg): 5(D6,7,9,13,15); IC50 [6]: 7 ± 2 µM"
"O=C(O)CCCc1ccc(N(CCCl)CCCl)cc1 [chlorambucil, reference compound]",≥ 0.0175,50,13.1,,,,,,0,,,,,,4 (D1),0.14,43 ± 14,47 ± 17,2.8 ± 0.4,> 100,IC50 (tumour cells): > 40 µM; Weight loss at day 1 ([1]; single IP 0.0175 mmol/kg): 1.4%; Number of deaths (day) ([1]; single IP 0.0175 mmol/kg): 0; Weight loss at day 1 ([1]; single IP 0.035 mmol/kg): 6.1%; Number of deaths (day) ([1]; single IP 0.035 mmol/kg): 0; Weight loss at day 1 ([1]; single IP 0.05 mmol/kg): 12.9%; Number of deaths (day) ([1]; single IP 0.05 mmol/kg): 0; Weight loss at day 1 ([1]; single IP 0.09 mmol/kg): 26%; Number of deaths (day) ([1]; single IP 0.09 mmol/kg): 1 (D1); IC50 [5]: > 100 µM
